# Experimental data taken from PubChem BioAssay AID2060625 (Molecular Pharmacology Branch, DTP, NCI, 2025).
# Tested on: 186277-243-T-J2-PDC spheroids with HUVEC/MSC, viability
# Assay: Anticancer human tumor 186277-243-T-J2-PDC patient-derived colon adenocarcinoma cell line growth inhibition [CLK]
# Details: for IC50: curve of first compound; for viability, T/C: stronger effect = lower value
# Summary of the method: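 Multi-cell-type spheroids combined patient-derived tumor cells with HUVEC endothelial cells and human mesenchymal stem cells. Paired agents were dosed in half-log steps down from about clinical Cmax, or from 10 microM where Cmax was unknown.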
# 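Further: compound exposure lasted seven days before readout.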
# 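Wherever viability, T/C is given: 100% = DMSO vehicle control wells.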
compound,measurement,setting,value
O=C(c1cc(Cc2n[nH]c(=O)c3ccccc23)ccc1F)N1CCN(C(=O)C2CC2)CC1 + CNC(=O)c1ccc(Nc2nc(OC3CCCC3)c3c(-c4ccc5nc(C)oc5c4)c[nH]c3n2)c(OC)c1,IC50,second compound 0.0316 µM,> 10 µM
same,IC50,second compound 0.1 µM,> 10 µM
same,IC50,second compound 0.316 µM,> 10 µM
same,IC50,second compound 1 µM,< 0.0316 µM
same,IC50,second compound 3.16 µM,< 0.0316 µM
same,IC50,second compound 10 µM,< 0.0316 µM
same,"viability, T/C","second compound 0.0316 µM, first compound 0.0316 µM",129%
same,"viability, T/C","second compound 0.0316 µM, first compound 0.1 µM",119%
same,"viability, T/C","second compound 0.0316 µM, first compound 0.316 µM",113%
same,"viability, T/C","second compound 0.0316 µM, first compound 1 µM",109%
same,"viability, T/C","second compound 0.0316 µM, first compound 3.16 µM",115%
same,"viability, T/C","second compound 0.0316 µM, first compound 10 µM",120%
same,"viability, T/C","second compound 0.1 µM, first compound 0.0316 µM",88.7%
same,"viability, T/C","second compound 0.1 µM, first compound 0.1 µM",81.7%
same,"viability, T/C","second compound 0.1 µM, first compound 0.316 µM",88.3%
same,"viability, T/C","second compound 0.1 µM, first compound 1 µM",81.2%
same,"viability, T/C","second compound 0.1 µM, first compound 3.16 µM",83.1%
same,"viability, T/C","second compound 0.1 µM, first compound 10 µM",84.1%
same,"viability, T/C","second compound 0.316 µM, first compound 0.0316 µM",55.8%
same,"viability, T/C","second compound 0.316 µM, first compound 0.1 µM",52.3%
same,"viability, T/C","second compound 0.316 µM, first compound 0.316 µM",55.4%
same,"viability, T/C","second compound 0.316 µM, first compound 1 µM",56.7%
same,"viability, T/C","second compound 0.316 µM, first compound 3.16 µM",57.3%
same,"viability, T/C","second compound 0.316 µM, first compound 10 µM",57.6%
same,"viability, T/C","second compound 1 µM, first compound 0.0316 µM",39.5%
same,"viability, T/C","second compound 1 µM, first compound 0.1 µM",39.7%
same,"viability, T/C","second compound 1 µM, first compound 0.316 µM",41.7%
same,"viability, T/C","second compound 1 µM, first compound 1 µM",37.7%
same,"viability, T/C","second compound 1 µM, first compound 3.16 µM",41.8%
same,"viability, T/C","second compound 1 µM, first compound 10 µM",43.9%
same,"viability, T/C","second compound 3.16 µM, first compound 0.0316 µM",36.8%
same,"viability, T/C","second compound 3.16 µM, first compound 0.1 µM",36.6%
same,"viability, T/C","second compound 3.16 µM, first compound 0.316 µM",34.9%
same,"viability, T/C","second compound 3.16 µM, first compound 1 µM",36.7%
same,"viability, T/C","second compound 3.16 µM, first compound 3.16 µM",38.1%
same,"viability, T/C","second compound 3.16 µM, first compound 10 µM",39.6%
same,"viability, T/C","second compound 10 µM, first compound 0.0316 µM",37.7%
same,"viability, T/C","second compound 10 µM, first compound 0.1 µM",37.5%
same,"viability, T/C","second compound 10 µM, first compound 0.316 µM",37.9%
same,"viability, T/C","second compound 10 µM, first compound 1 µM",36.5%
same,"viability, T/C","second compound 10 µM, first compound 3.16 µM",39.9%
same,"viability, T/C","second compound 10 µM, first compound 10 µM",35.5%
